Assay results taken from paper PMC11279616 (Pharmaceuticals, 2024).
Where no end group is shown, it is not given here.

What was measured:
Vero E6 cells [1] = settings: 100 µg
Vero E6 cells [2] = assay type: cell-based, African green monkey; settings: at 50 and at 100 μg, MTS
Description: For the MTS assay, VERO E6 cells (2 × 10^4/well) were seeded into 96-well plates in triplicate and cultured in growth medium. Then, different peptide concentrations were added, and the viability was tested every day for three consecutive days using the CellTiter […] Aqueous One Solution Cell Proliferation Assay kit (CTB169; Promega, Fitchburg, WI, USA) following the manufacturers manual. Untreated cells were used for value normalizations.

| Sequence | toxic effect (Vero E6 cells [1]) | concentration/toxicity ratio (Vero E6 cells [2]) |
| --- | --- | --- |
| VVNTDSLSSVTNATSIQITAPASMLI [DPP4_270–295] | without observing any toxic effect |  |
| VTNATAPNTDVSVSLSMILQTISASI [pep6] |  | best concentration/toxicity ratio |
